Earlier results, collected in patent US20050163858A1 (priority 2003, published 2005).

Experiments:
serotonin 5HT2A = serotonin 5HT2A (Homo sapiens, UniProt P28223)
serotonin 5HT1A = biological target: T1, serotonin 5HT1A (Homo sapiens, UniProt P08908)
T1 sequence (P08908 1-422): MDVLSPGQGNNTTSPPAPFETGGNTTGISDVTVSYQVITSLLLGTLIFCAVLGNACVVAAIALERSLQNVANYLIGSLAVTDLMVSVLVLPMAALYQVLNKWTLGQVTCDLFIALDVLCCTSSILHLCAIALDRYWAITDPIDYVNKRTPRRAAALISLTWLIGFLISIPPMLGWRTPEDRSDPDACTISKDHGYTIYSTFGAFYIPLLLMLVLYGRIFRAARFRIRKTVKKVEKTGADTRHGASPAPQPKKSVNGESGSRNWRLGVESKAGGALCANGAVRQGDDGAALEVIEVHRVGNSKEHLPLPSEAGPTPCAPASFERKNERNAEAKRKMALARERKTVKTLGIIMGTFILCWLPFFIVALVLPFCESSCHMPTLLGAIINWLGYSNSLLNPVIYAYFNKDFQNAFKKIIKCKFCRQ

serotonin 5HT2C = biological target: T2, serotonin 5HT2C (Homo sapiens, UniProt P28335)
T2 sequence (P28335 33-458): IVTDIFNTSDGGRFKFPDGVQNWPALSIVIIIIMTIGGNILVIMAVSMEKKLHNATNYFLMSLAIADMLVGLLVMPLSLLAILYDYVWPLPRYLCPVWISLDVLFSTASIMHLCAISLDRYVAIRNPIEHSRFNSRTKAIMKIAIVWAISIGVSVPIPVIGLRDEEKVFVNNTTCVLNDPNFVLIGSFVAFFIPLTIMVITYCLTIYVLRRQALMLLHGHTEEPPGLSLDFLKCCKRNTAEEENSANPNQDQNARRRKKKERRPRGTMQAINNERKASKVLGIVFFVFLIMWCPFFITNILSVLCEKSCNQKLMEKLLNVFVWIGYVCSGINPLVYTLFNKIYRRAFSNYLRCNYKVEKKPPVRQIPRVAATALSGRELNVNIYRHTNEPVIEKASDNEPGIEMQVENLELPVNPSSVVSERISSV

dopamine D2 = dopamine D2 (Homo sapiens, UniProt P14416)

Measured: in vitro binding affinity

Sequence of serotonin 5HT2A (P28223 whole entry): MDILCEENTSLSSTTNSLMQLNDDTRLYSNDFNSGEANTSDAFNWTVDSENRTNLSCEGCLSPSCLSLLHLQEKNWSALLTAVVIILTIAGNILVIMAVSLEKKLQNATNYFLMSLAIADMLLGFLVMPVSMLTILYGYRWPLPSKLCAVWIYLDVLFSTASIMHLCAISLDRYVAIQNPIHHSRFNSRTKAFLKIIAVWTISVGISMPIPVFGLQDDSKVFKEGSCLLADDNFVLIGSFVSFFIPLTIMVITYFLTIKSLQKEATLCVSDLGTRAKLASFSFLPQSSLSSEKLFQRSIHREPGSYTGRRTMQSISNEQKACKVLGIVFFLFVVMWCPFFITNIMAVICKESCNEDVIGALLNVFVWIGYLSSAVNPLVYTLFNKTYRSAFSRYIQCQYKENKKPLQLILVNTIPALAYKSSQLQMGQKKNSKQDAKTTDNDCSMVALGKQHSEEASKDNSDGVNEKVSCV
Sequence of dopamine D2 (P14416 whole entry): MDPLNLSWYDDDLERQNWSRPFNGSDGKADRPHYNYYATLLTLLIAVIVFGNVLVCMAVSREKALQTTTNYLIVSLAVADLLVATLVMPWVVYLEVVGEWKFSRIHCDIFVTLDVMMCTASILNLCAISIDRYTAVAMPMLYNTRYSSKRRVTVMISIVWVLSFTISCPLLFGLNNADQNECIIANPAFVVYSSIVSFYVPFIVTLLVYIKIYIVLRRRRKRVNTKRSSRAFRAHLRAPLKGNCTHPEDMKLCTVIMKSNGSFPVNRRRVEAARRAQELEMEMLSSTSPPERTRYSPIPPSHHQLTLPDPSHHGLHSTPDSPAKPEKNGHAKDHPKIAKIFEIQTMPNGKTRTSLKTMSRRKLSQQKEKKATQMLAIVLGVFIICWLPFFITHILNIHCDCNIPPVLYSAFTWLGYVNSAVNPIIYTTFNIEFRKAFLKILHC

O=C1Cc2cc(CCN3CCN(c4nsc5ccccc45)CC3)c(Cl)cc2N1 [Ziprasidone, 5-[2-[4-(1,2-benzisothiazol-3-yl)-1-piperazinyl]ethyl]-6-chloro-1,3-dihydro-2H-indol-2-one]
high: serotonin 5HT2A | serotonin 5HT1A | α1-adrenergic receptors | serotonin 5HT2C | serotonin 5HT1D | dopamine D2
